Test results published in patent US10660877B2 (BRISTOL-MYERS SQUIBB COMPANY, priority 2016, dated 2020).
Like-named read-outs stand apart in the source and are kept apart here.

Columns and labels:
[1] = target: human TLR8 (Homo sapiens (Human), UniProt Q9NR97); experiment: TLR8 inhibition reporter assay (HEK-Blue cells, SEAP reporter, R848 stimulation);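 note: compounds tested from 0.05 nM to 50 µM, 22 h at 37 °C, SEAP measured with HEK-Blue Detection, inhibition relative to agonist plus DMSO versus a known inhibitor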
[2] = target: human TLR7 (Homo sapiens (Human), UniProt Q9NYK1); experiment: TLR7 inhibition reporter assay (HEK-Blue cells, SEAP reporter, gardiquimod stimulation); format: cell-based
Protocol: TLR7/8/9 Inhibition Reporter Assays
(§1) Briefly, cells are seeded into Greiner 384 well plates (15000 cells per well for TLR7, 20,000 for TLR8 and 25,000 for TLR9) and then treated with test compounds in DMSO to yield a final dose response concentration range of 0.05 nM-50 μM. […] After a 22 hour incubation at 37° C., 5% CO2, SEAP levels are determined with the addition of HEK-Blue™ Detection reagent (Invivogen), a cell culture medium that allows for detection of SEAP, according to manufacturer's specifications. The percent inhibition is determined as the % reduction in the HEK-Blue signal present in wells treated with agonist plus DMSO alone compared to wells treated with a known inhibitor.

[3] = target: human TLR9 (Homo sapiens (Human), UniProt Q9NR96); experiment: TLR9 inhibition reporter assay (HEK-Blue cells, SEAP reporter, ODN2006 stimulation);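 note: compounds tested over 0.05 nM to 50 µM, 22 h incubation, inhibition taken as SEAP signal drop from agonist plus DMSO wells toward a known inhibitor control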
Protocol: TLR7/8/9 Inhibition Reporter Assays
as §1

[4] = read-out: TLR8 IC50, HEK-Blue cells, R848 15.9 μM
[5] = HEK-Blue cells, gardiquimod 7.5 μM
[6] = read-out: TLR9 IC50, HEK-Blue cells, ODN2006 5 nM
[7] = read-out: TLR8 IC50, HEK-Blue cells overexpressing human TLR8, R848 15.9 μM
[8] = HEK-Blue cells overexpressing human TLR7, gardiquimod 7.5 μM
[9] = read-out: TLR9 IC50, HEK-Blue cells overexpressing human TLR9, ODN2006 5 nM
[10] = TLR8 IC50, HEK-Blue cells overexpressing human TLR8, R848 15.9 μM
[11] = TLR9 IC50, HEK-Blue cells overexpressing human TLR9, ODN2006 5 nM

Chain of human TLR9 (Q9NR96 26-1032): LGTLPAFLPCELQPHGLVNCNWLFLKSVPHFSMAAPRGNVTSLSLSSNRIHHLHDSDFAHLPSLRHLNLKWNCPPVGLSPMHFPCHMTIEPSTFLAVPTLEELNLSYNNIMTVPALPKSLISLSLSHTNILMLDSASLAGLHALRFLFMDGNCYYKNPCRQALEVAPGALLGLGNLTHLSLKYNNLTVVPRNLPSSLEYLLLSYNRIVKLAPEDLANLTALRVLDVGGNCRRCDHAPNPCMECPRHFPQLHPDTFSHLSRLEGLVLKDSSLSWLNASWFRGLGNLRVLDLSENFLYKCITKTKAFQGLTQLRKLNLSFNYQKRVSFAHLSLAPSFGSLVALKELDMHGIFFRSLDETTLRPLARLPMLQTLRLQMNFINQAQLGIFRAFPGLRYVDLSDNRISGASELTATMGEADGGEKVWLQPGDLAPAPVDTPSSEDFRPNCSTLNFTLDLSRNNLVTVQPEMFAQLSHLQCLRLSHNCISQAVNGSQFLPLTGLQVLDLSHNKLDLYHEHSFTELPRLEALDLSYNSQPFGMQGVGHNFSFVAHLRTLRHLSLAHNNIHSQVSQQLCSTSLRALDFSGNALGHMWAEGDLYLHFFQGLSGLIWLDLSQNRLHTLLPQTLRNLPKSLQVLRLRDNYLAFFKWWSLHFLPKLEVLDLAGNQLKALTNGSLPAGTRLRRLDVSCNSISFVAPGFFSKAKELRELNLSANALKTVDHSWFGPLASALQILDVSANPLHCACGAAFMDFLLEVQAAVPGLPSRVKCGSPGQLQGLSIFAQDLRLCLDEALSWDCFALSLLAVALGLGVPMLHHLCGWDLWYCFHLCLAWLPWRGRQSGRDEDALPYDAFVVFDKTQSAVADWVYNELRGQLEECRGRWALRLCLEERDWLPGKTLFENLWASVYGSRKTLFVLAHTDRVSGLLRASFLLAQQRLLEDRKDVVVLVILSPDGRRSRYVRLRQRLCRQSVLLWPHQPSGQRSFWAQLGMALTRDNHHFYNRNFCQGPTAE
Chain of human TLR7 (Q9NYK1 27-1049): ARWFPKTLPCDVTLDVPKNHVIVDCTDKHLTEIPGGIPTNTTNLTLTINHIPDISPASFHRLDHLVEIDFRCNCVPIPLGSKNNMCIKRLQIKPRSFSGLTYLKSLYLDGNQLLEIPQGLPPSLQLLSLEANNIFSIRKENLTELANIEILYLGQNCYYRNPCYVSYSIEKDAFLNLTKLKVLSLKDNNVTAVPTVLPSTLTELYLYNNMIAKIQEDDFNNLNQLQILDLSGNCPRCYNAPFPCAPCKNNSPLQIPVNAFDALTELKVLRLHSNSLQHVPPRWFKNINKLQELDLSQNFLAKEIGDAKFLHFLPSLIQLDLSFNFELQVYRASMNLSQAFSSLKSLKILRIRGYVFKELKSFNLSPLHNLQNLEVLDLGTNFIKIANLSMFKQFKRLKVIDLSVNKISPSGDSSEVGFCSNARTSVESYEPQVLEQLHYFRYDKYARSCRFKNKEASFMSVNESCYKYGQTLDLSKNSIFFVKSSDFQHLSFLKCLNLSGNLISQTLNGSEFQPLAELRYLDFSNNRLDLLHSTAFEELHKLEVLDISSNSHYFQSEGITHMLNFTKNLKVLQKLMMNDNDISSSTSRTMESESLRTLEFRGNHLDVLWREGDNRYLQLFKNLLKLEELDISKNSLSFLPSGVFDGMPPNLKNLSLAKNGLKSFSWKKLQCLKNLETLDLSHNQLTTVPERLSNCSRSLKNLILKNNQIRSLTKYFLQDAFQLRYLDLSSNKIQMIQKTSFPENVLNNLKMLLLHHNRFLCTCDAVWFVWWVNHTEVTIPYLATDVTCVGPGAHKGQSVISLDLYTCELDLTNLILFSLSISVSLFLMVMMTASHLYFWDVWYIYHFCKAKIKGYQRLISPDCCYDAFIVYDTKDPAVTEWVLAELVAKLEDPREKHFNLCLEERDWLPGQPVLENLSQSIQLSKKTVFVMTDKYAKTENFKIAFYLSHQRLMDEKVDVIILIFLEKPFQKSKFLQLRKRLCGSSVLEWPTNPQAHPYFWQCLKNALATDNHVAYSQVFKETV
Chain of human TLR8 (Q9NR97 27-1041): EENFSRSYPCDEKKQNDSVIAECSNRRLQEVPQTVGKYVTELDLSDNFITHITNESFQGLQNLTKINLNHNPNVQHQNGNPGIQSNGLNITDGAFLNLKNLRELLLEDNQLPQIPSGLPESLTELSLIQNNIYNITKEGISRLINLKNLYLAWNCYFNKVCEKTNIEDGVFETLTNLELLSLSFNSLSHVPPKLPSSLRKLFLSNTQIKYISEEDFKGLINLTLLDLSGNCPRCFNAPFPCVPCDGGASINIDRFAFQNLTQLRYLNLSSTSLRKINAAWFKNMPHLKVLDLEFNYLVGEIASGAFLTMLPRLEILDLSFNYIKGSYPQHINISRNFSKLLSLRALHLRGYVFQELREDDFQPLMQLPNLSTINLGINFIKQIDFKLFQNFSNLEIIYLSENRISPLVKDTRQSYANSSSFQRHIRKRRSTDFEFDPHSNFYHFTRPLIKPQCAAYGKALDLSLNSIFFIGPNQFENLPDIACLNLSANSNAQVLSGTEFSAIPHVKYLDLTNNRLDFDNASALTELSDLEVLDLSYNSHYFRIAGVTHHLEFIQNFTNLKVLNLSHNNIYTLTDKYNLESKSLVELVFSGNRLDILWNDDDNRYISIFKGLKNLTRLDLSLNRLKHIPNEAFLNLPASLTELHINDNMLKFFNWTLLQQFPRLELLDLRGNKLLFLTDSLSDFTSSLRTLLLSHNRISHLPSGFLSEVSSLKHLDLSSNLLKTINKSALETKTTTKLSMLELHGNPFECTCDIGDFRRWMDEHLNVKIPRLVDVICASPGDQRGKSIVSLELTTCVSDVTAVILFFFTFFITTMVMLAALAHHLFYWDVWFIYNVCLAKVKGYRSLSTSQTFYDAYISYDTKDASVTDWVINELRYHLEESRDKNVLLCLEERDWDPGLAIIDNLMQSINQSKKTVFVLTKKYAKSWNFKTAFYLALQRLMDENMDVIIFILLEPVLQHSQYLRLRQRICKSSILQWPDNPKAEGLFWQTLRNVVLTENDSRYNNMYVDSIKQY

SMILES | IC50 [1, 4] [nM] | IC50 [2, 5] [nM] | IC50 [3, 6] [nM] | IC50 [1, 7] [nM] | IC50 [2, 8] [nM] | IC50 [3, 9] [nM] | IC50 [1, 10] [nM] | IC50 [3, 11] [nM]
Cc1cc(-c2[nH]c3ccc(C4CCN(CC5CCCCC5)CC4)cc3c2C(C)C)ccn1 [Example 868, 5-(1-(cyclohexylmethyl)piperidin-4-yl)-3-isopropyl-2-(2-methylpyridin-4-yl)-1H-indole] | 33.8 | 53.5 | 925 | – | – | – | – | –
Cc1cc(-c2[nH]c3ccc(C4CCN(C(=O)CN(C)C)CC4)cc3c2C(C)C)cc(F)n1 [Example 501, 2-(dimethylamino)-1-(4-(2-(2-fluoro-6-methylpyridin-4-yl)-3-isopropyl-1H-indol-5-yl)piperidin-1-yl)ethan-1-one] | – | – | – | 30.3 | 5.5 | 992 | – | –
Cc1cc(-c2[nH]c3ccc(C4CCN(C(=O)OC(C)C)CC4)cc3c2C(C)C)ccn1 [Example 559, isopropyl 4-(3-isopropyl-2-(2-methylpyridin-4-yl)-1H-indol-5-yl)piperidine-1-carboxylate] | – | – | – | 878 | 500 | 13500 | – | –
Cc1cc(-c2[nH]c3ccc(C4CCN(CC(=O)N(C)C5CCCCC5)CC4)cc3c2C(C)C)cc(C)n1 [Example 278, N-cyclohexyl-2-(4-(2-(2,6-dimethylpyridin-4-yl)-3-isopropyl-1H-indol-5-yl)piperidin-1-yl)-N-methylacetamide] | – | – | – | 28.5 | 6.1 | 288 | – | –
Cc1cc(-c2[nH]c3ccc(C4CCN(CC(=O)N5C[C@H](C(F)(F)F)C[C@@H]5CO)CC4)cc3c2C(C)C)cc(C)n1 [Example 301, 2-(4-(2-(2,6-dimethylpyridin-4-yl)-3-isopropyl-1H-indol-5-yl)piperidin-1-yl)-1-((2R,4R)-2-(hydroxymethyl)-4-(trifluoromethyl)pyrrolidin-1-yl)ethan-1-one] | – | – | – | 118 | 19.6 | 1580 | – | –
Cc1c(-c2ccncc2)[nH]c2ccc(C3CCN(C4CCN(CC(C)C)CC4)CC3)cc12 [Example 782, 5-(1′-isobutyl-[1,4′-bipiperidin]-4-yl)-3-methyl-2-(pyridin-4-yl)-1H-indole] | – | – | – | 383 | 1310 | 124 | – | –
Cc1cc(-c2[nH]c3ccc(C4CCN(CC(=O)N5C(C)CCC5C)CC4)cc3c2C(C)C)cc(C)n1 (stereo not drawn) [Example 261, 2-(4-(2-(2,6-dimethylpyridin-4-yl)-3-isopropyl-1H-indol-5-yl)piperidin-1-yl)-1-(2,5-dimethylpyrrolidin-1-yl)ethan-1-one] | – | – | – | 22.3 | 5.7 | 451 | – | –
CCc1c(-c2ccnc(-n3ccnc3)c2)[nH]c2ccc(C3CCNCC3)cc12 [Example 67, 2-(2-(1H-imidazol-1-yl)pyridin-4-yl)-3-ethyl-5-(piperidin-4-yl)-1H-indole] | – | – | – | 9 | 1010 | 396 | – | –
Cc1cc(-c2[nH]c3cc(C(F)(F)F)c(C4CCN(CC5CCNC5)CC4)cc3c2C(C)C)ccn1 (stereo not drawn) [Example 873, 3-isopropyl-2-(2-methylpyridin-4-yl)-5-(1-(pyrrolidin-3-ylmethyl)piperidin-4-yl)-6-(trifluoromethyl)-1H-indole] | 467 | 13.5 | 96 | – | – | – | – | –
CC(=O)N1CCC(c2ccc3[nH]c(-c4cc(C)nc(C5CC5)c4)c(C(C)C)c3c2)CC1 [Example 504, 1-(4-(2-(2-cyclopropyl-6-methylpyridin-4-yl)-3-isopropyl-1H-indol-5-yl)piperidin-1-yl)ethan-1-one] | – | – | – | 638 | 64.2 | 33900 | – | –
Cc1cc(-c2[nH]c3ccc(C4CCN(C5CCN(C(C)C)CC5)CC4)cc3c2CC(F)F)cc(C)n1 [Example 540, 3-(2,2-difluoroethyl)-2-(2,6-dimethylpyridin-4-yl)-5-(1′-isopropyl-[1,4′-bipiperidin]-4-yl)-1H-indole] | – | – | – | 25.6 | 11.8 | 131 | – | –
Cc1cc(-c2[nH]c3ccc(C4CCN(C[C@@H]5CCNC5)CC4)cc3c2C(C)C)ccn1 [Example 738, (R)-3-isopropyl-2-(2-methylpyridin-4-yl)-5-(1-(pyrrolidin-3-ylmethyl)piperidin-4-yl)-1H-indole] | – | – | – | 2.5 | 11.2 | 282 | – | –
Cc1cc(-c2[nH]c3ccc(C4CCN(C(=O)CN(C)CCCO)CC4)cc3c2C(C)C)cc(C)n1 [Example 411, 1-(4-(2-(2,6-dimethylpyridin-4-yl)-3-isopropyl-1H-indol-5-yl)piperidin-1-yl)-2-((3-hydroxypropyl)(methyl)amino)ethan-1-one] | – | – | – | 24 | 2.9 | 1230 | – | –
Cc1cc(-c2[nH]c3ccc(C4CCN(C(=O)CNC5(C)CCC5)CC4)cc3c2C(C)C)cc(C)n1 [Example 353, 1-(4-(2-(2,6-dimethylpyridin-4-yl)-3-isopropyl-1H-indol-5-yl)piperidin-1-yl)-2-((1-methylcyclobutyl)amino)ethan-1-one] | – | – | – | 9.5 | 4 | 429 | – | –
Cc1cc(-c2[nH]c3ccc(C4CCN(CC(=O)N(C)C(C)(C)C)CC4)cc3c2C(C)C)cc(C)n1 [Example 250, N-(tert-butyl)-2-(4-(2-(2,6-dimethylpyridin-4-yl)-3-isopropyl-1H-indol-5-yl)piperidin-1-yl)-N-methylacetamide] | – | – | – | 36.4 | 11.7 | 1200 | – | –
CCc1c(-c2ccnc(C)c2)[nH]c2ccc(C3CCN(C(C)C)CC3)cc12 [Example 672, 3-ethyl-5-(1-isopropylpiperidin-4-yl)-2-(2-methylpyridin-4-yl)-1H-indole] | – | – | – | 116 | 252 | 894 | – | –
CCc1c(-c2ccnc(OCCN(C)C)c2)[nH]c2ccc(C3CCN(C4CCN(CC(C)C)CC4)CC3)cc12 [Example 770, 2-((4-(3-ethyl-5-(1′-isobutyl-[1,4′-bipiperidin]-4-yl)-1H-indol-2-yl)pyridin-2-yl)oxy)-N,N-dimethylethan-1-amine] | – | – | – | > 50000 | 6730 | 310 | – | –
Cc1cc(-c2[nH]c3ccc(C4CCN(Cc5nnc(C6CC6)o5)CC4)cc3c2C(C)C)c(F)cn1 [Example 698, 2-cyclopropyl-5-((4-(2-(5-fluoro-2-methylpyridin-4-yl)-3-isopropyl-1H-indol-5-yl)piperidin-1-yl)methyl)-1,3,4-oxadiazole] | – | – | – | 37.6 | 54.2 | 12400 | – | –
CCN(CC)C(=O)CN1CCC(c2ccc3[nH]c(-c4cc(C)nc(C)c4)c(C(C)C)c3c2)CC1 [Example 228, 2-(4-(2-(2,6-dimethylpyridin-4-yl)-3-isopropyl-1H-indol-5-yl)piperidin-1-yl)-N,N-diethylacetamide] | – | – | – | 28.2 | 11.5 | 1110 | – | –
Cc1cc(-c2[nH]c3ccc(C4CCN(C(=O)CN5CCCC5=O)CC4)cc3c2C(C)C)cc(C)n1 [Example 154, 1-(2-(4-(2-(2,6-dimethylpyridin-4-yl)-3-isopropyl-1H-indol-5-yl)piperidin-1-yl)-2-oxoethyl)pyrrolidin-2-one] | – | – | – | 29.5 | 5.9 | > 50000 | – | –
Cc1cc(-c2[nH]c3ccc(C4CCNCC4(F)F)cc3c2C(C)C)cc(C)n1 (single isomer, unassigned) [Example 489B, 5-(3,3-difluoropiperidin-4-yl)-2-(2,6-dimethylpyridin-4-yl)-3-isopropyl-1H-indole] | – | – | – | – | 1.3 | – | 20 | 1010
Cc1cc(-c2[nH]c3ccc(C4CCN(CC(=O)N5CCOCC5)CC4)cc3c2C(C)C)cc(C)n1 [Example 232, 2-(4-(2-(2,6-dimethylpyridin-4-yl)-3-isopropyl-1H-indol-5-yl)piperidin-1-yl)-1-morpholinoethan-1-one] | – | – | – | – | 3.6 | – | 7.7 | 627
Cc1cc(-c2[nH]c3ccc(C4CCN(C(=O)C(C)(C)C)CC4)cc3c2C(C)C)ccn1 [Example 601, 1-(4-(3-isopropyl-2-(2-methylpyridin-4-yl)-1H-indol-5-yl)piperidin-1-yl)-2,2-dimethylpropan-1-one] | – | – | – | 385 | 99.2 | 34100 | – | –
Cc1cc(-c2[nH]c3ccc(C4CCN(S(=O)(=O)c5cn(C)c(C)n5)CC4)cc3c2C(C)C)ccn1 [Example 553, 5-(1-((1,2-dimethyl-1H-imidazol-4-yl)sulfonyl)piperidin-4-yl)-3-isopropyl-2-(2-methylpyridin-4-yl)-1H-indole] | – | – | – | 84.3 | 74.2 | 31600 | – | –
CCc1c(-c2ccnc(C)c2)[nH]c2ccc(C3CCN(CC(=O)O)CC3)cc12 [Example 876, 2-(4-(3-ethyl-2-(2-methylpyridin-4-yl)-1H-indol-5-yl)piperidin-1-yl)acetic acid] | 1940 | 958 | 46700 | – | – | – | – | –
Cc1cc(-c2[nH]c3ccc(C4CCN(C(=O)C5CCNC5)CC4)cc3c2C(C)C)ccn1 (stereo not drawn) [Example 572, (4-(3-isopropyl-2-(2-methylpyridin-4-yl)-1H-indol-5-yl)piperidin-1-yl)(pyrrolidin-3-yl)methanone] | – | – | – | 18.6 | 5.1 | 692 | – | –
CCc1c(-c2cc(C)nc(C)c2)[nH]c2ccc(C3CCN(CC(=O)N(C)C)CC3)cc12 [Example 526, 2-(4-(2-(2,6-dimethylpyridin-4-yl)-3-ethyl-1H-indol-5-yl)piperidin-1-yl)-N,N-dimethylacetamide] | – | – | – | 24.7 | 10.5 | 102 | – | –
